What was measured:
[1] = system: GST prepared from DLKP cells; test: total GST assay with 1-chloro-2,4-dinitrobenzene; format: biochemical, human
Method: The other NSAIDs were tested in a total GST assay (Habig, W. H., and Jakoby, W. B., (1981); Methods Enzymol., 77: 218-231). Total cellular GST activity was assayed, using 1-chloro-2,4-dinitrobenzene as a substrate, according to the method of Habig, W. H., and Jakoby, W. B., (1981); supra. Due to spectrophotometric interference at 340 nm, caused by the majority of the NSAIDs, the assays were all performed at 360 nm, without any apparent effect on the rate of the control reaction The results are shown in Table 5.

MRP pump = target: T1, MRP pump (Homo sapiens, UniProt P33527); test: ATP-dependent transport of [3H]LTC4 into inside-out plasma membrane vesicles from HL60ADR cells; format: biochemical; conditions: for MRP-pump inhibitory activity: conclusion from Table 4
T1 construct: inside-out plasma membrane vesicles prepared from HL60ADR cells; endogenous in cells; host or cells: HL60ADR cells (plasma membrane vesicles)
T1 sequence (P33527 whole entry): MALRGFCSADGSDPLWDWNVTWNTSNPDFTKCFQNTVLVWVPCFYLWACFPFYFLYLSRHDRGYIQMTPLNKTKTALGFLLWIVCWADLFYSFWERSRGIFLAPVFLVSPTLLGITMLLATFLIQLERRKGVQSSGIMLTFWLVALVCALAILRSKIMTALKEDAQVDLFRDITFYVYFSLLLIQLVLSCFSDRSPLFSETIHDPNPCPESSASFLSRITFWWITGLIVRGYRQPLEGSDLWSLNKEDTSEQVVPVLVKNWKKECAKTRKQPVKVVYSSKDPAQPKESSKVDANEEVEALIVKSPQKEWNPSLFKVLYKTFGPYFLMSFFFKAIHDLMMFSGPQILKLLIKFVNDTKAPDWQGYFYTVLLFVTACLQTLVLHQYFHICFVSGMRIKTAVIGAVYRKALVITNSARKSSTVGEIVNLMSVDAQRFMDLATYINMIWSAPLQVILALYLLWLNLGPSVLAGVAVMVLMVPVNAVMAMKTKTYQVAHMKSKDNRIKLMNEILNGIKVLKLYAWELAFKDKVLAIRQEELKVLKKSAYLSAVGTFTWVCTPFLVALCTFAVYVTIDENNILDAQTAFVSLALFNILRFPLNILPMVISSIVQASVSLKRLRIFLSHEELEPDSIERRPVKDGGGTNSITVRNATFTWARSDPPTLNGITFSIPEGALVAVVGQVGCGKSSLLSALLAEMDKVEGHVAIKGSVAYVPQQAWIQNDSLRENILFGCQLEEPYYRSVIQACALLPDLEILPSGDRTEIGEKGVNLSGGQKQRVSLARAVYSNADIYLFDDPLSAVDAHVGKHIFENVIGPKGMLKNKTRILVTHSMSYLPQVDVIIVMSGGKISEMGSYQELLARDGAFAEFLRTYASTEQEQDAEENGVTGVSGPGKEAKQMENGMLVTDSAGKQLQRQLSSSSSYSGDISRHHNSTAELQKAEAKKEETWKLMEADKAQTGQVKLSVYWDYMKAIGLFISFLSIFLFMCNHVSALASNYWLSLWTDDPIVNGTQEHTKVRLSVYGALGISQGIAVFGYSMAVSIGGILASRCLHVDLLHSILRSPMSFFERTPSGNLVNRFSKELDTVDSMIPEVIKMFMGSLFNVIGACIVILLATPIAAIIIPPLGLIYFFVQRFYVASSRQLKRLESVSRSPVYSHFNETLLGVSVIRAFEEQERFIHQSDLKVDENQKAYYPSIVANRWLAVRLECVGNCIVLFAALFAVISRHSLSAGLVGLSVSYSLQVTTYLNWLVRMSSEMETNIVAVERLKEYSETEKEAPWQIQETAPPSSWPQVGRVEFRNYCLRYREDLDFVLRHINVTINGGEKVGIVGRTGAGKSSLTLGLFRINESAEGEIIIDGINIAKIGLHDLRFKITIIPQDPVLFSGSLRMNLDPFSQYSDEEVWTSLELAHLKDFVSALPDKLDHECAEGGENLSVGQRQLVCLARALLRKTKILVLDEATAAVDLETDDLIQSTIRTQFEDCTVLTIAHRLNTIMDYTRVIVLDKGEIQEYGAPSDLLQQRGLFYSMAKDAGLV
Method: To determine if the NSAIDs were acting directly on the MRP pump the uptake of [^3H]LTC4 into inside-out plasma membrane vesicles prepared from HL60ADR cells was examined using a rapid filtration procedure (Ishikawa,T., et al. (1994); J. Biol. Chem. 269 (46); 29085-29093). ATP-dependent transport of [^3H]LTC4 into the membrane vesicles was measured by a rapid filtration method using a Millipore sampling manifold. The membrane vesicles were thawed at 37° C. before use and kept on ice. The reaction components consisted of 0.25 M sucrose/10 mM Tris.HCl pH 7.4/1 mM ATP/10 mM MgCl2/10 mM creatine phosphate/ 110 μg/ml creatine kinase and 10 nM [^3H]LTC4, with 50 μg of the inside-out vesicle preparation, in a final volume of 110 μl. This suspension was incubated at 37° C., with gentle mixing, and aliquots, 20 μl, were taken at the indicated points. Those aliquots were diluted in 1 ml of ice-cold incubation buffer before being applied to 0.22 μm Millipore GSWP nitrocellulose filters, pre-soaked in ice-cold incubation buffer, under suction. The filters were subsequently washed with 3 ml ice-cold incubation buffer, and absorbed radioactivity was measured using a scintillation counter (Beckman). In control experiments ATP was replaced with 5μ-AMP to determine the ATP-dependent transport.

DLKP cell line = test: miniaturised in vitro colorimetric cell survival assay (acid phosphatase end-point), DLKP; format: cell-based, human
Method: (§1) All the results presented in this Example for the DLKP, A549 and OAW42-SR cell lines were derived using the same miniaturised in vitro calorimetric assay system. On Day 1 of the assay 1000 cells/well/100 μl were plated into 96-well plates. Cells were allowed to attach overnight and cell viability was visually assessed. […] NSAID plus chemotherapeutic drug) to be analysed were added onto the cells. The individual drugs were added separately in 50 μl quantities (4× stocks, to take into account the dilution effect of having 200 μl final volume in each well). The drugs were left on the cells for five further days (Day 7) and cell number was determined using the acid phosphatase end-point assay which uses p-nitrophenol phosphate as substrate (Martin, A. and Clynes, M. (1991) In Vitro Dev. Biol., 27A, 183-184). On Day 7 the culture medium was removed from the cells and they were washed once with phosphate buffered saline (PBS). […] After the incubation period 50 μl of 1N NaOH was added to each well to develop the colour. The plates were then read at 405 nm (reference 620 nm) on an ELISA plate-reader. […] All results are the cell survival means ±S.D. from a minimum of three experiments.

A549 cell line = test: miniaturised in vitro colorimetric cell survival assay (acid phosphatase end-point), A549; format: cell-based, human
Method: as §1

MRP-specific substrates = test: screen for enhancement of toxicity of MRP substrates by NSAIDs; format: cell-based; conditions: summary statements
DLKP cells = test: Example 5 miniaturised in vitro cell toxicity assay, DLKP; format: cell-based, human
Method: For the monolayer cell lines miniaturised in vitro assays were used to determine drug toxicity. On Day I cells were seeded at 1×10^3 cells/well in a 96-well plate and left to attach overnight. Drug was added on Day 2, and the assay was terminated on Day 7. Cell number was then evaluated by using one of two colorimetric end-point […]: the acid phosphatase assay (Martin, A., and Clynes, M. (1991); In vitro Cell and Development Biology, 27A: 183-184) or the crystal violet dye elution assay (Martin, A., and Clynes, M. (1993); Cytotechnology, 11:49-58). All assays were performed in triplicate.

DLKP-7 cells = test: adriamycin efflux from loaded cells, HPLC; format: cell-based
Method: DLKP-7 cells were seeded into 75 cm^2 flasks at 0.5×10^6 cells/10 ml ATCC medium. The cells were left for 2 days, the ATCC medium was removed and fresh medium containing adriamycin (0.5 μg/ml) was added. Following a 2 hour incubation this medium was removed, the flasks were washed twice with PBS, 10 ml ATCC medium or ATCC medium containing the test NSAID was added, and the cells were incubated for a further 4 hr. The cells were trypsinised and the pellet was frozen at −20° C. Duplicate flasks for each time point were prepared. The NSAIDs used were indomethacin 10 μg/ml and piroxicam 20 μg/ml.
The amount of adriamycin in the cells was quantified using liquid-liquid extraction and reverse-phase HPLC analysis. The frozen cell pellets were thawed and resuspended in […] of water/100 μl of 33% silver nitrate and mixed for 5 min. 300 μl of methanol, containing 1.5 μg of daunorubicin as an internal standard (IS), and 1.3 ml of acetonitrile were then added and the tubes mixed for a further 5 min. The mixture was transferred to glass tubes and kept at 4° C. for 1 hr. The tubes were then centrifuged at 1000 g for 15 min. to pellet any solid material. 1.1 ml of the supernatant was removed to HPLC autosampler vials (Labquip, Dublin, Ireland). The solvent was evaporated off at room temperature under a stream of nitrogen gas.
The extract was resuspended in 50 μl of mobile phase 1 (MP1): 32 ml of 0.1 M phosphoric acid mixed with 244 ml of ultrapure water, pH: 2.3 (adjusted upwards with a few drops of 1N potassium hydroxide) to which 124 ml of acetonitrile was added and the final mixture was degassed in a sonicating bath for 5 min. The second mobile phase (MP2) consisted of acetonitrile. The resuspended sample (20 μl) was automatically injected into the HPLC system. The HPLC system comprised a Beckman System Gold 507 autosampler, 125 pump and 166 detector. The MP was pumped through a C18 reversed-phase Prodigy 5 μm particle size ODS-3 column (Phenomenex, Macclesfield, England) (dimensions 150×4.6mm) and absorbance was measured at 253 nm. For the first 14 min. of the chromatographic run MP 1 was pumped at 0.5 ml/min. From 14 min. to 20 min. the column was switched to MP 2. At 20 min. the column was switched back to MP 1 and the flow rate increased to 1 ml/min. At 30 min. the flow rate was brought back to 0.5 ml/min. The run continued for a further 5 min. giving a total run time of 35 min. The amount of adriamycin present was quantified by measuring its peak area and the peak area of the IS. The peak area of the adriamycin was divided by the area of the IS peak and the ratio plotted against a concentration series for spiked adriamycin samples.

CC(C(=O)O)c1cccc(Oc2ccccc2)c1 (centres unmarked) [Fenoprofen]
% Inhibition of GST ([1]; 1 mM): 22.5%

COc1ccc2cc([C@H](C)C(=O)O)ccc2c1 [Naproxen]
% Inhibition of GST ([1]; 1 mM): 17% | MRP-pump inhibitory activity (MRP pump): do not

O.O.O.O=C([O-])[C@H]([O-])[C@@H]([O-])C(=O)[O-].O=C([O-])[C@H]([O-])[C@@H]([O-])C(=O)[O-].[K+].[K+].[Sb+3].[Sb+3] [Potassium Antimonyl Tartrate, Potassium antimonyl tartrate]
% cell survival (DLKP cell line; vii) Potassium Antimonyl Tartrate 1.5 μg/ml alone): 39.98 ± 3.3%

Cc1cc(CC(=O)O)n(C)c1C(=O)c1ccc(Cl)cc1 [Zomepirac, zomepirac]
% Inhibition of GST ([1]; 0.25 mM): 56% | % cell survival (A549 cell line; xv) Zomepirac 20.70 μg/ml, alone or + Adriamycin 15 ng/ml): 96.79 ± 12.10% | % cell survival (A549 cell line; xv) Zomepirac 38.80 μg/ml, alone or + Adriamycin 15 ng/ml): 94.89 ± 13.91% | enhancement of toxicity of MRP substrates (MRP-specific substrates): have been found to enhance the toxicity of MRP-specific substrates

COc1ccc2c(c1)c(CC(=O)OCC(=O)O)c(C)n2C(=O)c1ccc(Cl)cc1 [Acemetacin, acemetacin]
% Inhibition of GST ([1]; 0.25 mM): 58% | % cell survival (A549 cell line; viii) Acemetacin 11.50 μg/ml, alone or + Adriamycin 15 ng/ml): 102.08 ± 8.76% | % cell survival (A549 cell line; viii) Acemetacin 19.20 μg/ml, alone or + Adriamycin 15 ng/ml): 97.30 ± 8.46% | % cell survival (A549 cell line; viii) Acemetacin 37.50 μg/ml, alone or + Adriamycin 15 ng/ml): 85.04 ± 10.13% | enhancement of toxicity of MRP substrates (MRP-specific substrates): have been found to enhance the toxicity of MRP-specific substrates

COc1cc([C@@H]2c3cc4c(cc3[C@@H](O[C@@H]3O[C@@H]5CO[C@@H](c6cccs6)O[C@H]5[C@H](O)[C@H]3O)[C@H]3COC(=O)[C@H]23)OCO4)cc(OC)c1O [Teniposide, teniposide]
% cell survival (DLKP cells; Teniposide 6.25 ng/ml alone): 79.79 ± 0.97%

CC(C)Cc1ccc(C(C)C(=O)O)cc1 (centres unmarked) [Ibuprofen]
% Inhibition of GST ([1]; 1 mM): 18.5% | % cell survival (A549 cell line; xvi) Ibuprofen 3.06 μg/ml, alone or + Adriamycin 17 ng/ml): 100.37 ± 7.94% | % cell survival (A549 cell line; xvi) Ibuprofen 7.92 μg/ml, alone or + Adriamycin 17 ng/ml): 96.78 ± 11.43% | % cell survival (A549 cell line; xvi) Ibuprofen 15.72 μg/ml, alone or + Adriamycin 17 ng/ml): 95.58 ± 8.50%

CC1=C(CC(=O)O)c2cc(F)ccc2/C1=C\c1ccc(S(C)(=O)=O)cc1 [Sulindac sulfone, sulindac sulfone]
% cell survival (A549 cell line; xiii) Sulindac sulfone 4.50 μg/ml, alone or + Adriamycin 15 ng/ml): 101.87 ± 10.52% | % cell survival (A549 cell line; xiii) Sulindac sulfone 8.90 μg/ml, alone or + Adriamycin 15 ng/ml): 102.21 ± 8.88% | % cell survival (A549 cell line; xiii) Sulindac sulfone 19.50 μg/ml alone, or (printed 19.50 mg/ml) + Adriamycin 15 ng/ml): 76.77 ± 6.49%

O=C(O)Cc1ccccc1Nc1c(Cl)cccc1Cl [Diclofenac]
% Inhibition of GST ([1]; 0.75 mM): 54%

O=C(O)CCC(=O)c1ccc(-c2ccccc2)cc1 [Fenbufen]
% Inhibition of GST ([1]; 1 mM): 15.6%

CCc1cccc2c3c([nH]c12)C(CC)(CC(=O)O)OCC3 (centres unmarked) [etodolac]
enhancement of toxicity of MRP substrates (MRP-specific substrates): does not exhibit the enhanced cytotoxicity

c1ccc([C@H]2CN3CCSC3=N2)cc1 [Levamisole]
% Inhibition of GST ([1]; 1 mM): 0%

CC(C(=O)O)c1cccc(C(=O)c2ccccc2)c1 (centres unmarked) [Ketoprofen]
% Inhibition of GST ([1]; 1 mM): 11.2%

Cc1cccc(Nc2ccccc2C(=O)O)c1C [Mefenamic acid, mefenamic acid]
% cell survival (A549 cell line; x) Mefenamic acid 2.30 μg/ml, alone or + Adriamycin 15 ng/ml): 98.49 ± 7.66% | % cell survival (A549 cell line; x) Mefenamic acid 4.00 μg/ml, alone or + Adriamycin 15 ng/ml): 95.38 ± 9.21% | % cell survival (A549 cell line; x) Mefenamic acid 7.90 μg/ml, alone or + Adriamycin 15 ng/ml): 85.23 ± 7.80%

CSc1ccc(/C=C2/C(C)=C(CC(=O)O)c3cc(F)ccc32)cc1 [Sulindac sulfide, sulindac sulfide]
% cell survival (A549 cell line; xii) Sulindac sulfide 1.40 μg/ml, alone or + Adriamycin 15 ng/ml): 105.83 ± 6.50% | % cell survival (A549 cell line; xii) Sulindac sulfide 2.70 μg/ml, alone or + Adriamycin 15 ng/ml): 104.91 ± 5.57% | % cell survival (A549 cell line; xii) Sulindac sulfide 6.00 μg/ml, alone or + Adriamycin 15 ng/ml): 90.19 ± 9.63%

O=C(O)c1ccccc1Nc1cccc(C(F)(F)F)c1 [Flufenamic Acid]
% Inhibition of GST ([1]; 0.75 mM): 41.2%

COc1cccc2c1C(=O)c1c(O)c3c(c(O)c1C2=O)C[C@@](O)(C(=O)CO)C[C@@H]3O[C@H]1C[C@H](N)[C@@H](O)[C@H](C)O1 [Epirubicin, epirubicin]
% cell survival (DLKP cells; Epirubicin 1 ng/ml alone): 69.08 ± 3.6%

O=c1[nH]cc(F)c(=O)[nH]1 [5-FU, 5-flurouracil]
% cell survival (DLKP cell line; iv) 5-FU 0.5 μg/ml alone): 66.18 ± 1.4%

CN1C(C(=O)Nc2ccccn2)=C(O)c2ccccc2S1(=O)=O [Piroxicam]
% Adriamycin content at 0 h (DLKP-7 cells; cells loaded with adriamycin 0.5 μg/ml 2 h, indomethacin 10 μg/ml, piroxicam 20 μg/ml, 0 h): 100% | % Adriamycin content at 4 h (DLKP-7 cells; cells loaded with adriamycin 0.5 μg/ml 2 h, indomethacin 10 μg/ml, piroxicam 20 μg/ml, 4 h): 67 ± 10% | level of adriamycin within the treated cells (DLKP-7 cells; during the 4 hours of the experiment): gradually decreased | inhibition at 302 µM (MRP pump; 0.302 mM): 0% | MRP-pump inhibitory activity (MRP pump): do not | enhancement of toxicity of MRP substrates (MRP-specific substrates): negative
